Measurements reported in PubChem BioAssay (NCI).
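All cell lines were grown in 96-well plates and treated with compound for 48 hours. GI50 marks 50% less growth. The concentration for full growth arrest is given as TGI.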

What was measured:
Experiment in all cases: NCI-60 cell line screen, 48 h
A498 renal = test system: A498 renal
CCRF-CEM leukemia = test system: CCRF-CEM leukemia
SF-268 CNS = test system: SF-268 CNS
SF-539 CNS = test system: SF-539 CNS
SNB-19 CNS = test system: SNB-19 CNS
SNB-75 CNS = test system: SNB-75 CNS
SW-620 colon = test system: SW-620 colon
TK-10 renal = test system: TK-10 renal
U251 CNS = test system: U251 CNS
UACC-257 melanoma = test system: UACC-257 melanoma

Structure (SMILES)	GI50 (A498 renal)	TGI (A498 renal)	GI50 (CCRF-CEM leukemia)	TGI (CCRF-CEM leukemia)	GI50 (SF-268 CNS)	TGI (SF-268 CNS)	GI50 (SF-539 CNS)	TGI (SF-539 CNS)	GI50 (SNB-19 CNS)	TGI (SNB-19 CNS)	GI50 (SNB-75 CNS)	TGI (SNB-75 CNS)	GI50 (SW-620 colon)	TGI (SW-620 colon)	GI50 (TK-10 renal)	TGI (TK-10 renal)	GI50 (U251 CNS)	TGI (U251 CNS)	GI50 (UACC-257 melanoma)	TGI (UACC-257 melanoma)
Cc1cc(N2CCSCC2)nc(NC2CCCC(Nc3ccnc4cc(Cl)ccc34)C2)n1 (stereo not drawn)	2.07 µM	4.64 µM	2.62 µM	10.9 µM	1.38 µM	3.13 µM	1.69 µM	3.16 µM	3.26 µM	11.5 µM	1.28 µM	2.94 µM	1.83 µM	3.77 µM	2.05 µM	4.58 µM	1.91 µM	3.7 µM	2.14 µM	4.13 µM
COc1cc(CNC2c3cc4c(cc3C(c3cc(OC)c(OC)c(OC)c3)[C@H]3C(=O)OCC23)OCO4)cc(OC)c1OC (stereo partly drawn)	–	0.762 µM	–	40.9 µM	–	> 100 µM	–	0.403 µM	–	> 100 µM	–	> 100 µM	–	> 100 µM	–	> 100 µM	–	–	–	> 100 µM
CCN(CC)CCCNC(=O)c1c2c(n3ccccc13)C(=O)c1ncccc1C2=O	1.66 µM	3.27 µM	2.21 µM	> 100 µM	1.11 µM	7.09 µM	1.07 µM	2.45 µM	1.09 µM	2.67 µM	1.5 µM	2.93 µM	0.367 µM	1.67 µM	–	–	1.37 µM	2.89 µM	0.491 µM	1.71 µM
O=c1c(Cl)c(Cl)c(=O)c2sc3cc(Cl)ccc3[nH]c1=2	–	> 100 µM	–	–	–	> 100 µM	–	> 100 µM	–	> 100 µM	–	> 100 µM	–	52.1 µM	–	> 100 µM	–	> 100 µM	–	35.3 µM
Cc1cc(C)c(Cn2cnc3c(Cl)ncnc32)c(C)c1CCl	> 100 µM	> 100 µM	24.9 µM	95.2 µM	79.7 µM	> 100 µM	> 100 µM	> 100 µM	> 100 µM	> 100 µM	–	–	92.7 µM	> 100 µM	–	–	2.77 µM	45.4 µM	–	–
CN(Cc1cc(Cl)cc(Cl)c1)CC(C(=O)c1ccccc1)c1ccccc1 (stereo not drawn)	–	64.8 µM	–	–	–	68.6 µM	–	23.2 µM	–	> 53 µM	–	31.3 µM	–	2.92 µM	–	23 µM	–	4.17 µM	–	14.9 µM
COc1cccc(/C=C/C(=O)c2ccc(Cl)cc2Cl)c1	11.9 µM	21 µM	–	–	11.2 µM	27.4 µM	12.2 µM	23 µM	8.07 µM	16.8 µM	13.9 µM	36.7 µM	1.82 µM	7.62 µM	12.8 µM	> 50 µM	9.19 µM	> 50 µM	9.33 µM	17.4 µM
Cc1cn2c(/C=N/N=C(N)N)c(-c3cccs3)nc2s1	–	–	1.34 µM	3.24 µM	12.9 µM	36.6 µM	1.6 µM	3.12 µM	11.9 µM	35.8 µM	–	–	1.71 µM	4.02 µM	12.9 µM	26 µM	1.77 µM	3.86 µM	2.54 µM	6.14 µM
